Patent US6355799B1, “Substituted benzene compounds, process for their preparation, and herbicidal and defoliant compositions containing them” (ISK Americas Incorporated, priority 1997, dated 2002)

How the values were obtained:
Format in all cases: in vivo
[1] = test system: redroot pigweed (Amaranthus retroflexus, AMARE); assay: Pre-emerge test, greenhouse herbicide activity screening; settings: pre-emerge, 14 days after application
Outline: (§1)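 Herbicidal damage is scored 0 (none) to 100 (complete plant death) two weeks after a simulated field spray. Rates span 15–1000 g ai/ha, delivered in acetone at 187 l/ha. For post-emergence treatments, plants have 2–3 leaves and the spray carries 0.25% v/v non-ionic surfactant.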

[2] = test system: barnyardgrass (Echinochloa crus-galli, ECHCG); assay: as above; settings: pre-emerge, 14 days after application
Outline: as §1

[3] = test system: common ragweed (Ambrosia artemisizfolia L., AMBEL); assay: as above; settings: pre-emerge, 14 days after application
Outline: as §1

[4] = test system: green foxtail (Setaria viridis, SETVI); assay: as above; settings: pre-emerge, 14 days after application
Outline: as §1

[5] = test system: ivyleaf morningglory (Ipomoea hederacea, IPOHE); assay: as above; settings: pre-emerge, 14 days after application
Outline: as §1

[6] = test system: johnsongrass (Sorghum halepense, SORHA); assay: as above; settings: pre-emerge, 14 days after application
Outline: as §1

[7] = test system: lambsquarters (Chenopodium album, CHEAL); assay: as above; settings: pre-emerge, 14 days after application
Outline: as §1

[8] = test system: large crabgrass (Digitaria sanguinalis, DIGSA); assay: as above; settings: pre-emerge, 14 days after application
Outline: as §1

[9] = test system: sicklepod (Cassia obtusifolia, CASOB); assay: as above; settings: pre-emerge, 14 days after application
Outline: as §1

[10] = test system: velvetleaf (Abutilon theophrasti, ABUTH); assay: as above; settings: pre-emerge, 14 days after application
Outline: as §1

[11] = test system: field corn (Zea mays L., var. Dekalb 535, CORN); assay: Pre-emerge test, crop safety; settings: pre-emerge, 14 days after application; for phytotoxicity rating CORN (crop damage): scale 0-100; for phytotoxicity rating CORN: rating scale 0-100
Outline: (§2)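 Visual ratings on a 0-100 scale (0 no damage, 100 all plants dead) were taken at 14 days after treatment. Rates of 15-1000 g ai/ha in acetone, 187 l/ha, were sprayed onto soil one day after planting (pre-emerge) or onto 2-3 leaf plants with 0.25% v/v surfactant (post-emerge).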

[12] = test system: upland rice (Oryza sp., var. Tebonnet, RICE); assay: Pre-emerge test, crop safety; settings: pre-emerge, 14 days after application; for phytotoxicity rating RICE (crop damage): scale 0-100; for phytotoxicity rating RICE: rating scale 0-100
Outline: as §2

[13] = test system: barnyardgrass (Echinochloa crus-galli, ECHCG); assay: Post-emerge test, greenhouse herbicide activity screening; settings: 14 days after application; for ECHCG phytotoxicity rating: post-emerge, rating scale 0-100; for Post-emerge Herbicidal Activity, phytotoxicity rating ECHCG: rating scale 0-100 (0 no damage, 100 complete death)
Outline: (§3)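 Compounds in acetone were track-sprayed at 187 l/ha, 15–1000 g ai/ha, onto sandy loam pots. Pre-emerge seeds were sown one day before spraying, with surface watering afterwards. Post-emerge plants were at the 2–3 leaf stage and sprayed with 0.25% v/v non-ionic surfactant. Injury was rated 0–100 at 14 days.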

[14] = test system: green foxtail (Setaria viridis, SETVI); assay: as above; settings: 14 days after application; for SETVI phytotoxicity rating: post-emerge, rating scale 0-100; for Post-emerge Herbicidal Activity, phytotoxicity rating SETVI: rating scale 0-100 (0 no damage, 100 complete death)
Outline: as §3

[15] = test system: ivyleaf morningglory (Ipomoea hederacea, IPOHE); assay: as above; settings: 14 days after application; for IPOHE phytotoxicity rating: post-emerge, rating scale 0-100; for Post-emerge Herbicidal Activity, phytotoxicity rating IPOHE: rating scale 0-100 (0 no damage, 100 complete death)
Outline: as §3

[16] = test system: johnsongrass (Sorghum halepense, SORHA); assay: as above; settings: 14 days after application; for SORHA phytotoxicity rating: post-emerge, rating scale 0-100; for Post-emerge Herbicidal Activity, phytotoxicity rating SORHA: rating scale 0-100 (0 no damage, 100 complete death)
Outline: as §3

[17] = test system: lambsquarters (Chenopodium album, CHEAL); assay: as above; settings: 14 days after application; for CHEAL phytotoxicity rating: post-emerge, rating scale 0-100; for Post-emerge Herbicidal Activity, phytotoxicity rating CHEAL: rating scale 0-100 (0 no damage, 100 complete death)
Outline: as §3

[18] = test system: large crabgrass (Digitaria sanguinalis, DIGSA); assay: as above; settings: 14 days after application; for DIGSA phytotoxicity rating: post-emerge, rating scale 0-100; for Post-emerge Herbicidal Activity, phytotoxicity rating DIGSA: rating scale 0-100 (0 no damage, 100 complete death)
Outline: as §3

[19] = test system: redroot pigweed (Amaranthus retroflexus, AMARE); assay: as above; settings: 14 days after application; for AMARE phytotoxicity rating: post-emerge, rating scale 0-100; for Post-emerge Herbicidal Activity, phytotoxicity rating AMARE: rating scale 0-100 (0 no damage, 100 complete death)
Outline: as §3

[20] = test system: sicklepod (Cassia obtusifolia, CASOB); assay: as above; settings: 14 days after application; for CASOB phytotoxicity rating: post-emerge, rating scale 0-100; for Post-emerge Herbicidal Activity, phytotoxicity rating CASOB: rating scale 0-100 (0 no damage, 100 complete death)
Outline: as §3

[21] = test system: velvetleaf (Abutilon theophrasti, ABUTH); assay: as above; settings: 14 days after application; for ABUTH phytotoxicity rating: post-emerge, rating scale 0-100; for Post-emerge Herbicidal Activity, phytotoxicity rating ABUTH: rating scale 0-100 (0 no damage, 100 complete death)
Outline: as §3

[22] = test system: field corn (Zea mays L., var. Dekalb 535, CORN); assay: Post-emerge test, crop safety; settings: 14 days after application; for CORN phytotoxicity rating (crop damage): post-emerge, rating scale 0-100; for Post-emerge phytotoxicity rating CORN (crop damage): rating scale 0-100 (0 no damage, 100 complete death)
Outline: as §1

[23] = test system: upland rice (Oryza sp., var. Tebonnet, RICE); assay: Post-emerge test, crop safety; settings: 14 days after application; for RICE phytotoxicity rating (crop damage): post-emerge, rating scale 0-100; for Post-emerge phytotoxicity rating RICE (crop damage): rating scale 0-100 (0 no damage, 100 complete death)
Outline: as §1

[24] = 250 g ai/ha, rating scale 0-100

Cn1c(C(F)(F)F)cc(=O)n(-c2ccc(C(F)(F)F)cc2NC(=O)c2ccc3ccccc3c2)c1=O [2-149]
phytotoxicity rating AMARE ([1]; 63 g ai/ha, scale 0-100): 100 | phytotoxicity rating AMARE ([1]; 250 g ai/ha, scale 0-100): 100 | phytotoxicity rating ECHCG ([2]; 63 g ai/ha, scale 0-100): 50 | phytotoxicity rating ECHCG ([2]; 250 g ai/ha, scale 0-100): 100 | phytotoxicity rating AMBEL ([3]; 63 g ai/ha, scale 0-100): 0 | phytotoxicity rating AMBEL ([3]; 250 g ai/ha, scale 0-100): 100 | phytotoxicity rating SETVI ([4]; 63 g ai/ha, scale 0-100): 50 | phytotoxicity rating SETVI ([4]; 250 g ai/ha, scale 0-100): 90 | phytotoxicity rating IPOHE ([5]; 63 g ai/ha, scale 0-100): 30 | phytotoxicity rating IPOHE ([5]; 250 g ai/ha, scale 0-100): 70 | phytotoxicity rating SORHA ([6]; 63 g ai/ha, scale 0-100): 30 | phytotoxicity rating SORHA ([6]; 250 g ai/ha, scale 0-100): 50 | phytotoxicity rating CHEAL ([7]; 63 g ai/ha, scale 0-100): 100 | phytotoxicity rating CHEAL ([7]; 250 g ai/ha, scale 0-100): 100 | phytotoxicity rating DIGSA ([8]; 63 g ai/ha, scale 0-100): 90 | phytotoxicity rating DIGSA ([8]; 250 g ai/ha, scale 0-100): 100 | phytotoxicity rating CASOB ([9]; 63 g ai/ha, scale 0-100): 0 | phytotoxicity rating CASOB ([9]; 250 g ai/ha, scale 0-100): 50 | phytotoxicity rating ABUTH ([10]; 63 g ai/ha, scale 0-100): 99 | phytotoxicity rating ABUTH ([10]; 250 g ai/ha, scale 0-100): 100 | phytotoxicity rating CORN (crop damage) ([11]; 63 g ai/ha): 0 | phytotoxicity rating CORN (crop damage) ([11]; 250 g ai/ha): 20 | phytotoxicity rating RICE (crop damage) ([12]; 63 g ai/ha): 0 | phytotoxicity rating RICE (crop damage) ([12]; 250 g ai/ha): 50 | ECHCG phytotoxicity rating ([13]; 63 g ai/ha): 20 | ECHCG phytotoxicity rating ([13]; 250 g ai/ha): 50 | SETVI phytotoxicity rating ([14]; 63 g ai/ha): 10 | SETVI phytotoxicity rating ([14]; 250 g ai/ha): 20 | IPOHE phytotoxicity rating ([15]; 63 g ai/ha): 70 | IPOHE phytotoxicity rating ([15]; 250 g ai/ha): 95 | SORHA phytotoxicity rating ([16]; 63 g ai/ha): 0 | SORHA phytotoxicity rating ([16]; 250 g ai/ha): 0 | CHEAL phytotoxicity rating ([17]; 63 g ai/ha): 90 | CHEAL phytotoxicity rating ([17]; 250 g ai/ha): 95 | DIGSA phytotoxicity rating ([18]; 63 g ai/ha): 0 | DIGSA phytotoxicity rating ([18]; 250 g ai/ha): 20 | AMARE phytotoxicity rating ([19]; 63 g ai/ha): 80 | AMARE phytotoxicity rating ([19]; 250 g ai/ha): 80 | CASOB phytotoxicity rating ([20]; 63 g ai/ha): 95 | CASOB phytotoxicity rating ([20]; 250 g ai/ha): 95 | ABUTH phytotoxicity rating ([21]; 63 g ai/ha): 100 | ABUTH phytotoxicity rating ([21]; 250 g ai/ha): 100 | CORN phytotoxicity rating (crop damage) ([22]; 63 g ai/ha): 0 | CORN phytotoxicity rating (crop damage) ([22]; 250 g ai/ha): 15 | RICE phytotoxicity rating (crop damage) ([23]; 63 g ai/ha): 0 | RICE phytotoxicity rating (crop damage) ([23]; 250 g ai/ha): 10

CCOC(=O)C(Cl)Cc1c(C)c(Cl)cc(F)c1-n1c(=O)cc(C(F)(F)F)n(C)c1=O (centres unmarked) [14-54]
phytotoxicity rating AMARE ([1]; 63 g ai/ha, rating scale 0-100): 20 | phytotoxicity rating AMARE [1, 24]: 85 | phytotoxicity rating ECHCG ([2]; 63 g ai/ha, rating scale 0-100): 0 | phytotoxicity rating ECHCG [2, 24]: 0 | phytotoxicity rating AMBEL ([3]; 63 g ai/ha, rating scale 0-100): 0 | phytotoxicity rating AMBEL [3, 24]: 0 | phytotoxicity rating SETVI ([4]; 63 g ai/ha, rating scale 0-100): 20 | phytotoxicity rating SETVI [4, 24]: 80 | phytotoxicity rating IPOHE ([5]; 63 g ai/ha, rating scale 0-100): 0 | phytotoxicity rating IPOHE [5, 24]: 40 | phytotoxicity rating SORHA ([6]; 63 g ai/ha, rating scale 0-100): 0 | phytotoxicity rating SORHA [6, 24]: 30 | phytotoxicity rating CHEAL ([7]; 63 g ai/ha, rating scale 0-100): 10 | phytotoxicity rating CHEAL [7, 24]: 100 | phytotoxicity rating DIGSA ([8]; 63 g ai/ha, rating scale 0-100): 0 | phytotoxicity rating DIGSA [8, 24]: 30 | phytotoxicity rating CASOB ([9]; 63 g ai/ha, rating scale 0-100): 0 | phytotoxicity rating CASOB [9, 24]: 10 | phytotoxicity rating ABUTH ([10]; 63 g ai/ha, rating scale 0-100): 0 | phytotoxicity rating ABUTH [10, 24]: 70 | phytotoxicity rating CORN ([11]; 63 g ai/ha): 0 | phytotoxicity rating CORN ([11]; 250 g ai/ha): 0 | phytotoxicity rating RICE ([12]; 63 g ai/ha): 0 | phytotoxicity rating RICE ([12]; 250 g ai/ha): 15 | Post-emerge Herbicidal Activity, phytotoxicity rating ECHCG ([13]; Rate 63 g ai/ha): 30 | Post-emerge Herbicidal Activity, phytotoxicity rating ECHCG ([13]; Rate 250 g ai/ha): 30 | Post-emerge Herbicidal Activity, phytotoxicity rating SETVI ([14]; Rate 63 g ai/ha): 10 | Post-emerge Herbicidal Activity, phytotoxicity rating SETVI ([14]; Rate 250 g ai/ha): 10 | Post-emerge Herbicidal Activity, phytotoxicity rating IPOHE ([15]; Rate 63 g ai/ha): 30 | Post-emerge Herbicidal Activity, phytotoxicity rating IPOHE ([15]; Rate 250 g ai/ha): 80 | Post-emerge Herbicidal Activity, phytotoxicity rating SORHA ([16]; Rate 63 g ai/ha): 0 | Post-emerge Herbicidal Activity, phytotoxicity rating SORHA ([16]; Rate 250 g ai/ha): 0 | Post-emerge Herbicidal Activity, phytotoxicity rating CHEAL ([17]; Rate 63 g ai/ha): 20 | Post-emerge Herbicidal Activity, phytotoxicity rating CHEAL ([17]; Rate 250 g ai/ha): 60 | Post-emerge Herbicidal Activity, phytotoxicity rating DIGSA ([18]; Rate 63 g ai/ha): 0 | Post-emerge Herbicidal Activity, phytotoxicity rating DIGSA ([18]; Rate 250 g ai/ha): 10 | Post-emerge Herbicidal Activity, phytotoxicity rating AMARE ([19]; Rate 63 g ai/ha): 40 | Post-emerge Herbicidal Activity, phytotoxicity rating AMARE ([19]; Rate 250 g ai/ha): 50 | Post-emerge Herbicidal Activity, phytotoxicity rating CASOB ([20]; Rate 63 g ai/ha): 0 | Post-emerge Herbicidal Activity, phytotoxicity rating CASOB ([20]; Rate 250 g ai/ha): 30 | Post-emerge Herbicidal Activity, phytotoxicity rating ABUTH ([21]; Rate 63 g ai/ha): 60 | Post-emerge Herbicidal Activity, phytotoxicity rating ABUTH ([21]; Rate 250 g ai/ha): 80 | Post-emerge phytotoxicity rating CORN (crop damage) ([22]; Rate 63 g ai/ha): 5 | Post-emerge phytotoxicity rating CORN (crop damage) ([22]; Rate 250 g ai/ha): 15 | Post-emerge phytotoxicity rating RICE (crop damage) ([23]; Rate 63 g ai/ha): 10 | Post-emerge phytotoxicity rating RICE (crop damage) ([23]; Rate 250 g ai/ha): 10
